Measured values reported in publication PMC12610274, “Identification of Marrubiin as a Cathepsin C Inhibitor for Treating Rheumatoid Arthritis” (Molecules, 2025).
Values belong to the compound of their own block, whether it stands above or below them.

How the values were obtained:
[1] = Cytotoxicity assay, U937 cell line; assay type: cell-based; details: human, U937 cells
Experimental: (§1) RAW264.7 cells and U937 cells in the logarithmic growth phase were counted and diluted, and the concentrations of the single-cell suspensions of the two types of cells were adjusted to 5 × 10^4 cells/mL and 3 × 10^4 cells/mL, respectively. After thorough mixing, the cells were seeded into a 96-well plate, with 100 μL of cell suspension added to each well. Prepare the working solution of test compounds using the corresponding medium as the solvent, with the concentration of working solution being 2 times the final test concentration (2.5 μM, 5 μM, 10 μM, 20 μM, and 40 μM). Twenty-four hours after cell seeding, the compound working solutions were added to the compound test wells, and the same volume of medium was added to the negative control wells, followed by continuous incubation for another 24 h. Only the wells with the same volume but without cells served as the blank control group. The CellTiter-Lumi™ luminescent cell viability assay kit (Beyotime Biotechnology, Shanghai, China, C0065XL) was used to detect cell viability according to the standard operating procedures. Each group of tests was independently repeated at least 3 times, and IC50 values were calculated using SPSS 10.0.

[2] = Cytotoxicity assay, RAW264.7 cell line; assay type: cell-based; details: mouse, RAW264.7 cells
Experimental: as §1

NE [3] = test: NSPs activity in U937 cells after 5 days of treatment, NE; assay type: cell-based, human; details: U937, 10 μM
Experimental: (§2) U937 cells in the logarithmic growth phase were collected and equally divided into six portions. Four of these portions were treated with DMSO solutions of the test compound at varying concentrations to achieve final concentrations of 1.25, 2.5, 5, and 10 μM, respectively. An equal volume of DMSO was added to one portion as a blank control, while another portion treated with a DMSO solution of AZD7986 served as a positive control. The cells were cultured under standard U937 conditions for 5 consecutive days, with daily medium changes and fresh compound treatments administered using the same protocol. Following 5 days of treatment, cells were harvested, washed twice thoroughly with phosphate-buffered saline, and lysed in phosphate-buffered saline containing 1% Triton X-100. The lysates were centrifuged to collect the supernatant, and protein concentrations were determined as previously described to ensure equal total protein loading across all samples. The prepared samples were stored at −20 °C until further analysis. Different assay buffers were prepared for diluting samples and measuring the activities of specific NSPs: a buffer containing 50 mM Tris and 750 mM NaCl (pH 7.4) was used for NE and PR3; a buffer containing 50 mM Tris, 750 mM NaCl, 5 mM EDTA (pH 7.4) was used for Cat G; and a buffer containing 25 mM MES, 50 mM NaCl, 5 mM DTT (pH 6.0) was used for CTSC. […]

PR3 [4] = test: NSPs activity in U937 cells after 5 days of treatment, PR3; assay type: cell-based, human; details: U937, 10 μM
Experimental: as §2

Cat G [5] = test: NSPs activity in U937 cells after 5 days of treatment, Cat G; assay type: cell-based, human; details: U937, 10 μM
Experimental: as §2

CTSC [6] = target: T1, CTSC (Mus musculus, UniProt P97821); test: CTSC activity in blood and bone marrow of mice; assay type: in vivo, C57BL/6 mice; details: 30 mg/kg daily gavage, 7 days
T1 construct: from tissue; host or cells: mouse blood and bone marrow lysates
Experimental: (§3) A total of 25 C57BL/6 mice (6–8 weeks old, weighing approximately 20 g, with equal numbers of males and females) were randomly divided into five groups. Mice in the compound-treated groups were orally administered the compound once daily at doses of 0.3, 3, and 30 mg/kg for 7 consecutive days. […] Mice in the normal group were given an equal volume of normal saline at the same time points. The body weight, death rate, and behavior were observed and recorded daily for one week. After 7 days, bone marrow and blood samples were collected from the mice and lysed using 8% Triton X-100 buffer. The lysates were stored at −20 °C until testing. The activity assays for CTSC and NSPs were performed as described above. The mice were anesthetized and the tissues were taken for H&E staining.

NE [7] = test: NE activity in blood and bone marrow of mice; assay type: in vivo, C57BL/6 mice; details: 30 mg/kg daily gavage, 7 days
Experimental: as §3

PR3 [8] = test: PR3 activity in blood and bone marrow of mice; assay type: in vivo, C57BL/6 mice; details: 30 mg/kg daily gavage, 7 days
Experimental: as §3

Cat G [9] = test: Cat G activity in blood and bone marrow of mice; assay type: in vivo, C57BL/6 mice; details: 30 mg/kg daily gavage, 7 days
Experimental: as §3

AIA model = test: Adjuvant-induced arthritis (AIA) model, disease severity; assay type: in vivo, Sprague-Dawley rats; details: rat AIA
Experimental: (§4) Thirty 4-week-old male Sprague-Dawley rats (weighing 120–130 g) were randomly divided into 6 groups (5 rats per group) after 1 week of adaptive feeding, namely the normal group, model group, low-dose experimental group (15 mg/kg), medium-dose experimental group (30 mg/kg), high-dose experimental group (60 mg/kg), and positive control group (30 mg/kg). Starting from Day 0 of the experiment, rats in the administration groups and model group were injected intradermally with 0.1 mL of CFA into the left hind paw to induce AIA, while rats in the normal group were injected intradermally with an equal volume (0.1 mL) of normal saline as a control. After 13 consecutive days of feeding, rats treated with CFA successfully developed typical AIA symptoms. […] During the experiment, the body weight, mental state, activity ability, hair color changes, and paw appearance changes of the rats were observed and recorded daily. In addition, on Day 0 of the experiment (baseline period), the basic paw volume of all rats was accurately measured using a plethysmometer, which served as a reference standard for subsequent evaluation of inflammation severity. From Day 13 to Day 28 of the experiment, the paw volume of the rats was measured repeatedly every 3 days. The degree of paw swelling was quantified by calculating the change in paw volume relative to the baseline. Meanwhile, the arthritis index score was calculated based on the range of paw redness and swelling, the severity of swelling, and the degree of limb movement limitation, so as to comprehensively evaluate the inflammatory state. On Day 28 of the experiment (the end of the administration cycle), blood samples were collected via abdominal aortic puncture. The blood samples were centrifuged at 3000 rpm for 20 min, and the upper serum was collected and stored at −20 °C for subsequent detection. The rats were then sacrificed, and their ankle joint tissues were harvested for subsequent pathological section observation and analysis. The cytokine levels in serum were measured. The activity detection of CTSC and NSPs was carried out according to the above methods.

CTSC [10] = target: T2, CTSC (Rattus norvegicus, UniProt P80067); test: AIA model, serum CTSC activity; assay type: in vivo, Sprague-Dawley rats; details: 30 mg/kg gavage, 15 days
T2 construct: from tissue; host or cells: serum of Sprague-Dawley rats (AIA model)
Experimental: as §4, with “Meanwhile, the arthritis index score was calculated based on the range of paw redness and swelling, the severity of swelling, and the degree of limb movement limitation, so as to comprehensively evaluate the inflammatory state. On Day 28 of the experiment (the end of the administration cycle), blood samples were collected via abdominal aortic puncture. The blood samples were centrifuged at 3000 rpm for 20 min, and the upper serum was collected and stored at −20 °C for subsequent detection. The rats were then sacrificed, and their ankle joint tissues were harvested for subsequent pathological section observation and analysis.” left out, “The activity detection of CTSC and NSPs was carried out according to the above methods.” left out

NE [11] = test: AIA model, serum NE activity; assay type: in vivo, Sprague-Dawley rats; details: rat AIA, 30 mg/kg gavage, 15 days
Experimental: as §4, with “Meanwhile, the arthritis index score was calculated based on the range of paw redness and swelling, the severity of swelling, and the degree of limb movement limitation, so as to comprehensively evaluate the inflammatory state. On Day 28 of the experiment (the end of the administration cycle), blood samples were collected via abdominal aortic puncture. The blood samples were centrifuged at 3000 rpm for 20 min, and the upper serum was collected and stored at −20 °C for subsequent detection. The rats were then sacrificed, and their ankle joint tissues were harvested for subsequent pathological section observation and analysis.” left out, “The activity detection of CTSC and NSPs was carried out according to the above methods.” left out

PR3 [12] = test: AIA model, serum PR3 activity; assay type: in vivo, Sprague-Dawley rats; details: rat AIA, 30 mg/kg gavage, 15 days
Experimental: as §4, with “Meanwhile, the arthritis index score was calculated based on the range of paw redness and swelling, the severity of swelling, and the degree of limb movement limitation, so as to comprehensively evaluate the inflammatory state. On Day 28 of the experiment (the end of the administration cycle), blood samples were collected via abdominal aortic puncture. The blood samples were centrifuged at 3000 rpm for 20 min, and the upper serum was collected and stored at −20 °C for subsequent detection. The rats were then sacrificed, and their ankle joint tissues were harvested for subsequent pathological section observation and analysis.” left out, “The activity detection of CTSC and NSPs was carried out according to the above methods.” left out

Cat G [13] = test: AIA model, serum Cat G activity; assay type: in vivo, Sprague-Dawley rats; details: rat AIA, 30 mg/kg gavage, 15 days
Experimental: as §4, with “Meanwhile, the arthritis index score was calculated based on the range of paw redness and swelling, the severity of swelling, and the degree of limb movement limitation, so as to comprehensively evaluate the inflammatory state. On Day 28 of the experiment (the end of the administration cycle), blood samples were collected via abdominal aortic puncture. The blood samples were centrifuged at 3000 rpm for 20 min, and the upper serum was collected and stored at −20 °C for subsequent detection. The rats were then sacrificed, and their ankle joint tissues were harvested for subsequent pathological section observation and analysis.” left out, “The activity detection of CTSC and NSPs was carried out according to the above methods.” left out

CTSC [14] = target: T3, CTSC (Homo sapiens, UniProt P53634); test: CTSC activity in U937 cells after 5 days of treatment; assay type: cell-based; design: endogenous in cells; host or cells: U937; details: U937, 5 days, marrubiin and AZD7986 at the same concentration
Experimental: as §2
Target sequence in this assay (P53634 25-463): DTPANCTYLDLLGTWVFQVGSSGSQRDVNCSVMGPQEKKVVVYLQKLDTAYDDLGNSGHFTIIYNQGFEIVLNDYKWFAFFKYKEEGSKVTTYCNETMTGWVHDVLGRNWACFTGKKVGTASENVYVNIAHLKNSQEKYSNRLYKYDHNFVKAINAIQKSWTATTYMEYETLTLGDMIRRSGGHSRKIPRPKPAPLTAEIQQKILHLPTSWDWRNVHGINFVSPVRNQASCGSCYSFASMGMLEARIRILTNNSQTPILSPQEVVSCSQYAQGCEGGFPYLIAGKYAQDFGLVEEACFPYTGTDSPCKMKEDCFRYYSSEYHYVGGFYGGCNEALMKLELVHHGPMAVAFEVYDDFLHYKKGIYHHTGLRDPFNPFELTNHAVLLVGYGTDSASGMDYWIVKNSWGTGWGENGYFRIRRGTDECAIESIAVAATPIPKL

intracellular CTSC = target: T4, intracellular CTSC (Homo sapiens, UniProt P53634); test: CTSC cell-based assay using the U937 cell line; details: read-out: Cell-Based Enz (IC50: nM)
T4 construct: endogenous in cells; host or cells: U937
Experimental: Cell-based CTSC enzymatic activity assays were performed in 96-well clear-bottom black microplates. […] The detection substrate, H-Gly-Arg-AFC, was diluted to 100 µM in serum-free medium and stored for later use. U937 cells in the logarithmic growth phase were harvested, washed with PBS, and counted. A single-cell suspension was prepared at a density of 1.0 × 10^6 cells/mL using serum-free medium. 30 µL of cell suspension was seeded into each well of the 96-well plate. To the test wells, 10 µL of the compound working solution was added, while 10 µL of serum-free medium was added to the control wells. The plate was pre-incubated in a cell culture incubator at 37 °C for 3 h. Subsequently, 10 µL of H-Gly-Arg-AFC was added to initiate the enzymatic reaction, and the plate was further incubated at 37 °C for 1 h. Fluorescence measurements were performed using a multimode microplate reader at excitation/emission wavelengths of 400/505 nm. Each group of tests was independently repeated at least 3 times, and IC50 values were calculated using SPSS 10.0.

CTSC [15] = target: T3, CTSC; test: Human recombinant CTSC isolated enzyme assay; assay type: biochemical; design: purchased R&D Systems
Experimental: Both recombinant CTSL and CTSC for in vitro cell-free-based enzymatic activity assay can be purchased from R&D Systems (Minneapolis, MN, USA), a biotechnology company. According to the standardized procedures and material ratios provided by R&D Systems, prepare the activation solution (25 mM MES + 5 mM DTT, pH 6.0) and the assay solution (25 mM MES + 50 mM NaCl + 5 mM DTT, pH 6.0) in advance for later use. Dilute the detection substrate H-Gly-Arg-AMC to a 200 µM solution with the assay solution for standby. Prepare the working solution of compounds to be tested using the assay solution, with the concentration of working solution being 10 times the final test concentration. Dilute CTSC and CTSL, respectively, with cold activation solution. Thoroughly mix the two activation solutions containing the proteins to achieve final concentrations of 300 nM for CTSL and 440 nM for CTSC. After co-incubation for 1 h, the activated CTSC treated with CTSL can be used for the enzymatic activity inhibition efficacy test of compounds. Dilute the activated CTSC to 4.4 nM with cold assay buffer. Incubate 4 μL of the activated CTSC with 1 μL of the compound working solution (test group) or 1 μL of blank assay solution (control group) at room temperature for 3 h. Then, add 5 μL of the detection substrate to achieve a final concentration of 100 μM. Mix 5 µL each of the assay solution and the substrate solution as the blank group. After 1 h, the absorbance of detection substrate was measured using a multifunctional microplate reader at excitation/emission wavelengths of 380 nm/460 nm. The inhibitory efficacy of molecules on enzyme activity was calculated based on the absorbance difference between test group and control group. […] Each group of tests mentioned above was independently repeated at least 3 times, and IC50 values were calculated using SPSS 10.0.
Target sequence in this assay (P53634 25-134 limits assumed): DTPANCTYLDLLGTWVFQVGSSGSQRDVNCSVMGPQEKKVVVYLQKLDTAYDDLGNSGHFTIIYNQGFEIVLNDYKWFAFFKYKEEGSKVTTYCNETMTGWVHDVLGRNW
Target sequence in this assay (P53634 231-394 limits assumed): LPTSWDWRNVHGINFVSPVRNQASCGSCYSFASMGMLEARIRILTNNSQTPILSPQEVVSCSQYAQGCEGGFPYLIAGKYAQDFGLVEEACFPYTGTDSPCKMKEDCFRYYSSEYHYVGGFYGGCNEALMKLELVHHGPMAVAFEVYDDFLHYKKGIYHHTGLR
Target sequence in this assay (P53634 395-463 limits assumed): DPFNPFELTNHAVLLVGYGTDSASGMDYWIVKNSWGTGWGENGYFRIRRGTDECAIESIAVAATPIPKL

T1 sequence (P97821 25-462): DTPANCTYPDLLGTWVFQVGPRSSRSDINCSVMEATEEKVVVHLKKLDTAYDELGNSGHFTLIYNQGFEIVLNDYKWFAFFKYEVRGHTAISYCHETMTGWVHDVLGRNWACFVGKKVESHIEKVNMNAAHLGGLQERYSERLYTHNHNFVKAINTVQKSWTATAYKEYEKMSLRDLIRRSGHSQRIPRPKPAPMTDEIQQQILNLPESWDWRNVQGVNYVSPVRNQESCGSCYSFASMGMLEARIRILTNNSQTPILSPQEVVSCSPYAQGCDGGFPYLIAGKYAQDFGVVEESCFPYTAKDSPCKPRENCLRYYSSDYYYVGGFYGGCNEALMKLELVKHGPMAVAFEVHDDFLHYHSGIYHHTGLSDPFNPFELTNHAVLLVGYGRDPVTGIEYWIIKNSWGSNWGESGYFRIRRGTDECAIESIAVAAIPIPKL
T2 sequence (P80067 25-462): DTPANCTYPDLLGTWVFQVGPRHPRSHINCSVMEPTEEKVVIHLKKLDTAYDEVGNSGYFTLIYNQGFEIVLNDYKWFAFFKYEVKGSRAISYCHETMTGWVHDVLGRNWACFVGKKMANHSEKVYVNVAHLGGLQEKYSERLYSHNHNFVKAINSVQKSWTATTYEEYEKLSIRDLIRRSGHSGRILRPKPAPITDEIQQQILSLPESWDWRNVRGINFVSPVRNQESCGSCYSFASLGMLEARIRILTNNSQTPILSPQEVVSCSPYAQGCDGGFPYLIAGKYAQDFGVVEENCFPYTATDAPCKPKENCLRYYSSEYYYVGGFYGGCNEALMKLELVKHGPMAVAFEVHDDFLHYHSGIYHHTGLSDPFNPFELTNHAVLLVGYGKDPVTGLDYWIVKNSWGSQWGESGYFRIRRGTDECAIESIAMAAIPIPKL
T4 sequence (P53634 25-463): as the sequence (P53634 25-463) above

SMILES: Cn1c(=O)oc2ccc(-c3ccc(C[C@@H](C#N)NC(=O)[C@@H]4CNCCCO4)cc3)cc21 [AZD7986, reference compound]
IC50 at 24 h [1]: > 10 µM
IC50 at 24 h [2]: > 10 µM
NE activity, % of DMSO group (NE [3]): 5.1%
PR3 activity, % of DMSO group (PR3 [4]): 8.1%
Cat G activity, % of DMSO group (Cat G [5]): 12.7%
remaining activity rate of CTSC (CTSC [6]; blood): ~18.3%
remaining activity rate of CTSC (CTSC [6]; bone marrow): approximately 10.6%
remaining activity rate of NE (NE [7]; blood): ~8.1%
remaining activity rate of NE (NE [7]; bone marrow): ~11.7%
remaining activity rate of PR3 (PR3 [8]; blood): ~10.3%
remaining activity rate of PR3 (PR3 [8]; bone marrow): ~15.8%
remaining activity rate of Cat G (Cat G [9]; blood): ~35.2%
remaining activity rate of Cat G (Cat G [9]; bone marrow): ~30.5%
histopathology of ankle joints (H&E, Safranin O/Fast Green) (AIA model; 30 mg/kg): reduced the histopathological statement
clinical score vs AIA model group (AIA model; 30 mg/kg gavage, from day 16 onwards): significantly lower than those of AIA model group
volume and thickness of inflamed paws (AIA model; 30 mg/kg, days 16 to 28): continuous reduction in volume and a gradual decrease in thickness
body weight recovery (AIA model; 30 mg/kg, from day 16 onwards): most significant weight recovery effects
serum CTSC activity, % of control group (CTSC [10]): approximately 35%
serum NE activity, % of control group (NE [11]): ~30%
serum PR3 activity, % of control group (PR3 [12]): ~40%
serum Cat G activity, % of control group (Cat G [13]): approximately 58%
residual CTSC activity (CTSC [14]): less than 8%

IC50 (intracellular CTSC): 702.1 ± 3.2 nM
IC50 (CTSC [15]; human recombinant CTSC, cell-free, 12-point dose-response, read-out: CTSC Enz (IC50: nM)): 1053 ± 2.2 nM
SMILES: CC(=O)OCC1=CO[C@@H](OC(=O)CC(C)C)[C@H]2C1=C[C@H](OC(=O)CC(C)(C)OC(C)=O)[C@]21CO1 [Acevaltrate, acevaltrate]
IC50 at 24 h [1]: > 10 µM
IC50 at 24 h [2]: > 10 µM

enzymatic inhibitory activity against CTSC (CTSC [15]; result in words): no enzymatic inhibitory activity at all
SMILES: N[C@@H]1CON=C1O [D-cycloserine]
